Source: patent US10308660B2, “Compounds and compositions for inhibiting the activity of SHP2” (Novartis AG, priority 2015, dated 2019)

molecular target: SHP2 (Homo sapiens (Human), UniProt Q06124); test: SHP2 allosteric inhibition assay (DiFMUP prompt fluorescence); format: biochemical; conditions: 0.5 nM SHP2 activated with 0.5 μM peptide IRS1_pY1172(dPEG8)pY1222; substrate DiFMUP; 25° C.

IC50 [nM] | SMILES
92 | N[C@@H]1CCCC12CCN(c1ncc(Sc3cccnc3C(F)(F)F)c(=O)[nH]1)CC2 [Example 92]
65 | CC1(CN)CCN(c2ncc(Sc3cccc(Cl)c3Cl)c(=O)[nH]2)CC1 [Example 93]
178 | CC1(CN)CCN(c2ncc(Sc3ccccc3Cl)c(=O)[nH]2)CC1 [Example 94]
68 | Cn1c(N2CCC(C)(CN)CC2)ncc(Sc2cccc(Cl)c2Cl)c1=O [Example 98, 2-(4-(aminomethyl)-4-methylpiperidin-1-yl)-5-((2,3-dichlorophenyl)thio)-3-methylpyrimidin-4(3H)-one]
375 | Cn1c(N2CCC(C)(CN)CC2)ncc(Sc2ccccc2Cl)c1=O [Example 99]
631 | Cn1c(N2CCC(C)(CN)CC2)ncc(Sc2cccnc2C(F)(F)F)c1=O [Example 100]
15 | C[C@@H]1OCC2(CCN(c3ncc(Sc4cccc(Cl)c4Cl)c(=O)n3C)CC2)[C@@H]1N [Example 103]
109 | Cn1c(N2CCC3(CC[C@@H]3N)CC2)ncc(Sc2cccc(Cl)c2Cl)c1=O [Example 104]
500 | Cn1c(N2CCC(C)(CN)CC2)ncc(Sc2ccccc2C(F)(F)F)c1=O [Example 108]
26 | Cn1c(N2CCC3(CCC[C@H]3N)CC2)ncc(Sc2cccc(Cl)c2Cl)c1=O [Example 109]
35 | C[C@@H]1OCC2(CCN(c3ncc(Sc4ccnc(N)c4Cl)c(=O)n3C)CC2)[C@@H]1N [Example 113]
50 | C[C@H]1C[C@@H](N)C2(CCN(c3ncc(Sc4cccnc4C(F)(F)F)c(=O)n3C)CC2)C1 [Example 114]
83 | Cn1c(N2CCC(C)(CN)CC2)ncc(Sc2ccnc(Cl)c2Cl)c1=O [Example 115]
1620 | Cn1c(N2CCC(C)(CN)CC2)ccc(Sc2cccc(Cl)c2Cl)c1=O [Example 116, 6-(4-(aminomethyl)-4-methylpiperidin-1-yl)-3-((2,3-dichlorophenyl)thio)-1-methylpyridin-2(1H)-one]
68 | Cc1nc(N2CCC3(CC2)CO[C@@H](C)[C@H]3N)n(C)c(=O)c1Sc1cccnc1C(F)(F)F [Example 122]

Continued, compound first:

SMILES | IC50 [nM]
CCOc1nccc(Sc2cnc(N3CCC4(CC3)CO[C@@H](C)[C@H]4N)[nH]c2=O)c1Cl [Example 95] | 23
C[C@@H]1OCC2(CCN(c3ncc(Sc4cccc(Cl)c4Cl)c(=O)[nH]3)CC2)[C@@H]1N [Example 97] | 9
Cn1c(N2CCC3(CC2)COC[C@H]3N)ncc(Sc2cccc(Cl)c2Cl)c1=O [Example 101] | 37
CCOc1nccc(Sc2cnc(N3CCC4(CC3)CO[C@@H](C)[C@H]4N)n(C)c2=O)c1Cl [Example 102] | 10
COc1nccc(Sc2cnc(N3CCC4(CC3)CO[C@@H](C)[C@H]4N)n(C)c2=O)c1Cl [Example 105] | 8
COc1cccc(Sc2cnc(N3CCC4(CC3)CO[C@@H](C)[C@H]4N)n(C)c2=O)c1Cl [Example 106] | 30
C[C@@H]1OCC2(CCN(c3ncc(Sc4ccnc(NC5CC5)c4Cl)c(=O)n3C)CC2)[C@@H]1N [Example 107] | 146
C[C@H]1C[C@@H](N)C2(CCN(c3ncc(Sc4cc(N)ncc4Cl)c(=O)n3C)CC2)C1 [Example 110] | 16
C[C@@H]1OCC2(CCN(c3ncc(Sc4cc(N)nc(Cl)c4Cl)c(=O)n3C)CC2)[C@@H]1N [Example 112] | 19
CC1(CN)CCN(c2ccc(Sc3cccc(Cl)c3Cl)c(=O)[nH]2)CC1 [Example 118, 6-(4-(aminomethyl)-4-methylpiperidin-1-yl)-3-((2,3-dichlorophenyl)thio)pyridin-2(1H)-one] | 108
COc1nccc(Sc2ccc(N3CCC4(CC3)CO[C@@H](C)[C@H]4N)[nH]c2=O)c1Cl [Example 119] | 83
C[C@@H]1OCC2(CCN(c3ccc(Sc4cccc(Cl)c4Cl)c(=O)[nH]3)CC2)[C@@H]1N [Example 120] | 15
Cc1nc(N2CCC3(CC2)CO[C@@H](C)[C@H]3N)n(C)c(=O)c1Sc1ccnc(N)c1Cl [Example 121, 5-((2-amino-3-chloropyridin-4-yl)thio)-2-((3S,4S)-4-amino-3-methyl-2-oxa-8-azaspiro[4.5]decan-8-yl)-3,6-dimethylpyrimidin-4(3H)-one] | 60
Cc1ccc(-c2c(N)nc(N3CCC4(CC3)CO[C@@H](C)[C@H]4N)n(C)c2=O)cc1Cl [Example 123, 6-amino-2-((3S,4S)-4-amino-3-methyl-2-oxa-8-azaspiro[4.5]decan-8-yl)-5-(3-chloro-4-methylphenyl)-3-methylpyrimidin-4(3H)-one] | 14
Cc1ccc(-c2c(N)nc(N3CCC4(CC3)C[C@@H](C)C[C@H]4N)n(C)c2=O)cc1Cl [Example 124] | 10
C[C@H]1C[C@@H](N)C2(CCN(c3nc(N)c(-c4cccc(Cl)c4)c(=O)n3C)CC2)C1 [Example 125] | 12
C[C@H]1C[C@@H](N)C2(CCN(c3nc(N)c(-c4cccc(F)c4F)c(=O)n3C)CC2)C1 [Example 126] | 12

SMILES | IC50 [nM]
C[C@H]1C[C@@H](N)C2(CCN(c3nc(N)c(-c4ccc(F)c(F)c4)c(=O)n3C)CC2)C1 [Example 127] | 14
C[C@H]1C[C@@H](N)C2(CCN(c3nc(N)c(-c4cccc(Cl)c4Cl)c(=O)n3C)CC2)C1 [Example 129] | 14
C[C@@H]1OCC2(CCN(c3nc(N)c(-c4ccc(SC(F)(F)F)cc4)c(=O)n3C)CC2)[C@@H]1N [Example 130] | 14
CC(C)c1ccc(-c2c(N)nc(N3CCC4(CC3)CO[C@@H](C)[C@H]4N)n(C)c2=O)cc1 [Example 131] | 16
C[C@@H]1OCC2(CCN(c3nc(N)c(-c4cccc(Cl)c4Cl)c(=O)n3C)CC2)[C@@H]1N [Example 132] | 16
C[C@@H]1OCC2(CCN(c3nc(N)c(-c4ccc(F)c(F)c4)c(=O)n3C)CC2)[C@@H]1N [Example 133] | 17
C[C@H]1C[C@@H](N)C2(CCN(c3nc(N)c(-c4ccc(SC(F)(F)F)cc4)c(=O)n3C)CC2)C1 [Example 134] | 19
C[C@@H]1OCC2(CCN(c3nc(N)c(-c4cccc(Cl)c4)c(=O)n3C)CC2)[C@@H]1N [Example 135] | 19
C[C@@H]1OCC2(CCN(c3nc(N)c(-c4ccc(Cl)cc4)c(=O)n3C)CC2)[C@@H]1N [Example 136] | 20
Cn1c(N2CCC3(CC2)CC(F)(F)C[C@H]3N)nc(N)c(-c2cccc(Cl)c2Cl)c1=O [Example 137] | 22
C[C@@H]1OCC2(CCN(c3nc(N)c(-c4ccccc4)c(=O)n3C)CC2)[C@@H]1N [Example 138] | 24
C[C@@H]1OCC2(CCN(c3nc(N)c(-c4ccc(OC5CC5)cc4)c(=O)n3C)CC2)[C@@H]1N [Example 139] | 25
C[C@H]1C[C@@H](N)C2(CCN(c3nc(N)c(-c4ccccc4)c(=O)n3C)CC2)C1 [Example 140] | 25
C[C@@H]1OCC2(CCN(c3nc(N)c(-c4ccc(Cl)c(F)c4)c(=O)n3C)CC2)[C@@H]1N [Example 141] | 26
C[C@@H]1OCC2(CCN(c3nc(N)c(-c4ccc(Oc5ccccc5)cc4)c(=O)n3C)CC2)[C@@H]1N [Example 142] | 27
C[C@@H]1OCC2(CCN(c3nc(N)c(-c4cccc(F)c4F)c(=O)n3C)CC2)[C@@H]1N [Example 143] | 28
CC[C@@H]1OCC2(CCN(c3nc(N)c(-c4ccccc4)c(=O)n3C)CC2)[C@@H]1N [Example 144] | 34
